Results: patent publication US8507460B2, “Substituted 3′,5′-cyclic phosphates of purine nucleotide compounds and pharmaceutical compositions for the treatment of viral infections” (priority 2011, dated 2013)

Experiments:
[1] = Stability in fresh human whole blood; assay type: in vitro ADME; settings: 0.5 μM, percent unchanged
Description: (§1) Stability of test compounds were determined in fresh human whole blood with K2EDTA as the anticoagulant (stored refrigerated at 2-8° C. and used within 7 days of receipt). The experiment was conducted with three replicates for each time point. Whole blood, pre-incubated at 37° C. for 10-15 minutes, was fortified with a solution of test compound for a final concentration of 0.5 μM and mixed for 30 sec. At intervals (0, 0.5, 1 and 2 hr), three […] aliquots were combined with 200 μL (each) of an ice-cold solution of the internal standard (carbutamide 500 ng/mL in acetonitrile). The samples were vortexed for 30 sec and then centrifuged at 16,100 g for 5 min. The supernatant was analyzed by LC-MS/MS. The MS peak area ratio of the test compound versus the internal standard was calculated and percent unchanged test compound was calculated for each time point using this ratio.

[2] = Stability in rat whole blood; assay type: in vitro ADME
[3] = Stability in simulated gastric and intestinal fluids; assay type: in vitro ADME; settings: 100 μM, 2 hours at 37° C., percent of peak area at time zero
Description: Simulated gastric and intestinal fluids containing pepsin and pancreatin respectively were prepared according to the U.S. Pharmacopoeia USP291 procedure (www.pharmacopeia.cn/v29240/usp29nf24s0_ris1s126.html). Test compound (final concentration 100 μM) was incubated in duplicate in the appropriate fluid for 2 hours at 37° C. The samples were quenched with 200 μl cold acetonitrile, vortexed for 30 seconds and then centrifuged at 16,100 g for 10 min. The supernatants were analyzed by HPLC on a C-18 column with UV detection at 252 nm. The time 0 samples were prepared by adding SGF or SIF fluid to the quenching solvent followed by the test compound. Stability of the compound was determined by peak area the test compound after incubation and calculated as percent of the peak area observed at time zero.

fresh human hepatocytes = test: Release of active metabolite in fresh human hepatocytes; assay type: in vitro ADME; settings: 10 μM
Description: Plates of fresh human and mouse hepatocytes were obtained on ice. The medium was removed and replaced with hepatocyte culture medium (William's E supplemented with penicillin-streptomycin, 1% L-glutamine, 1% insulin-transferrin-selenium and 0.1 μM Dexamethasone (Invitrogen) or with Invitro GRO HI medium complemented with Torpedo antibiotics (Celsis)). Cells were left overnight in an incubator at 37° C. to acclimatize to culture and the medium.
Hepatocyte incubations were conducted at a final volume of 0.5 mL hepatocyte culture medium/well (0.8 million cells/well for human and 0.5 million cells/well for mouse; 12 well plate no overlay, collagen coat). Culture medium from overnight incubation of cells was removed and replaced with fresh medium, pre-warmed to 37° C., containing 10 μM of test compound from a stock solution in DMSO (final DMSO concentration was 0.1%). At each specific time point, incubation medium was removed and cell monolayers were carefully washed two times with ice-cold PBS. Following the last wash, all PBS was carefully removed and 1.0 mL of extraction solution (ice-cold 70% methanol/30% water) added. Cells were scraped off and suspended in the extraction solution, transferred to 2 mL polypropylene microfuge tubes and intracellular contents extracted overnight at −20° C.
After the overnight treatment the cellular extracts were prepared by centrifugation at 16,000×g for 10 min to remove cellular debris. The remaining sample was then dried using a refrigerated centrivap concentrator. Dry extracts were reconstituted in 1000 μL of HPLC-grade water and centrifuged at 16,000×g for 10 min. Aliquots (100 μL each) of the supernatant were transferred into a 96 well plate and internal standard (4 ng/mL final concentration) was added as the internal standard (IS) for LC-MS/MS analysis.
The incubation time points were 6, 24 and 48 hours for human hepatocytes and 1, 4, 8, 12 and 24 hours for mouse hepatocytes.

Stability in mouse blood = assay type: in vitro ADME; settings: mouse whole blood, on ice, percent unchanged
Description: as §1
The stability in mouse blood was determined on ice at 0, 0.5 and 1 hr as above.

[4] = Stability in liver and intestinal subcellular fractions (microsomes and S9); assay type: in vitro ADME, human; settings: 10 μM, NADPH, 60 min, percent unchanged
Description: Stability of test compounds were determined in subcellular fractions (microsomes and S9) of human liver and intestine in duplicate for each matrix. Pooled liver and intestinal microsomal, intestinal and liver S9 proteins (1.0 mg/mL), suspended in incubation buffer (100 mM potassium phosphate, pH […], and 0.1 mM EDTA), were preincubated for 5 min at 37° C. with 10 μM of a test compound from a 10 mM stock solution in DMSO (final DMSO concentration was 0.1%); the reaction was initiated by the addition of NADPH (3 mM final concentration). At specific times (0 and 60 min), 0.1 mL samples were taken and the reaction terminated by the addition of 4 volumes of stop solution (acetonitrile with 500 ng/mL carbutamide as an internal standard). The samples were vortexed for 30 sec and then centrifuged at 16,000 g for 10 min. 100 μL of supernatants were transferred to 96 deep-well plates preloaded with 100 μL distilled water and analyzed after mixing by LC-MS/MS. The MS peak area ratio of the test compound versus the internal standard was calculated and percent unchanged test compound over 60 minutes was calculated using this ratio.

Zluc cells = test: Cytotoxicity evaluation, CellTiter-Blue Cell Viability Assay; assay type: cell-based; settings: read-out: HCV Replicon CC50
Description: For cytotoxicity evaluation, Zluc cells were treated with compound as described above, and cell viability was monitored using the CellTiter-Blue Cell Viability Assay (Promega) by adding 20 μL of the assay solution to each well. The plates were then incubated at 37° C./5% CO2 for at least 3 hours.

HCV genotype 1b replicon = test: HCV Replicon Assay (Zluc luciferase reporter); assay type: cell-based
Description: Huh-7-derived cell line (Zluc) that harbors an HCV genotype 1b replicon and a luciferase reporter gene was grown in Dulbecco's Modified Eagle Medium (DMEM) supplemented with 10% fetal bovine serum, 2 mM GlutaMAX, 1% MEM nonessential amino acids, 100 IU/mL penicillin, 100 μg/mL streptomycin, and 0.5 mg/mL Geneticin® (G418). For dose response testing the cells were seeded in 96-well plates at 7.5×10^3 cells per well in a volume of […], and incubated at 37° C./5% CO2. Drug solutions were made up freshly in Huh-7 media as 2× stocks. […] 5-fold dilutions were prepared from these stocks in DMEM without G418. At least three hours after Zluc cells were seeded, drug treatment was initiated by adding 50 μL of drug dilutions to the plates in duplicate. Final concentrations of drug ranged from 100 μM to 0.0000512 μM. Cells were then incubated at 37° C./5% CO2. Alternatively, compounds were tested at two concentrations (1 μM and 10 μM). […] After 72 hours of incubation, the inhibition of HCV replication was measured by quantification of photons emitted after mono-oxygenation of 5′-fluoroluciferin to oxyfluoroluciferin by firefly luciferase. For this, media was removed from the plates via gentle tapping. Fifty microliters of ONE-glo luciferase assay reagent was added to each well. The plates were shaken gently for 3 min at room temperature and luminescence was measured on a Victor^3 V 1420 multilabel counter (Perkin Elmer) with a 1 second read time using a 700 nm cut-off filter. The EC50 values were calculated from dose response curves from the resulting best-fit equations determined by Microsoft Excel and XLfit 4.1 software. When screening at two fixed concentrations, the results were expressed as % inhibition at 1 μM and 10 μM.

SMILES: CCOc1nc(N)nc2c1ncn2[C@@H]1O[C@@H]2COP(=O)(OC(C)C)O[C@H]2[C@@]1(C)O (single isomer, unassigned) [Compound 1b]
- Stability WB_Human (37° C.; 2 hr) [1]: 103%
- Stability WB_Rat (ice; 1 hr) [2]: 96%
- Stability SGF ([3]; simulated gastric fluid with pepsin): 99%
- Stability SIF ([3]; simulated intestinal fluid with pancreatin): 101%
- FHH TP (6 hr) (fresh human hepatocytes; 6 hr): BLD^a
- FHH TP (24 hr) (fresh human hepatocytes; 24 hr): BLD^a
- Stability WB_Mouse (ice; 1 hr) (Stability in mouse blood): 96%
- Stability HIS9 (1 hr) ([4]; HIS9 1.0 mg/mL): 104%
- Stability HIM (1 hr) ([4]; human intestinal microsome 1.0 mg/mL): 102%
- Stability HLS9 (1 hr) ([4]; human liver S9 fraction 1.0 mg/mL): 112%
- Stability HLM (1 hr) ([4]; human liver microsome 1.0 mg/mL): 96%
- CC50 (Zluc cells): > 50 µM
- selectivity index (HCV genotype 1b replicon; HCV replicon assay, Zluc cells): greater than 80
- EC50 (HCV genotype 1b replicon; Zluc cells (Huh-7-derived, HCV genotype 1b replicon, luciferase reporter), 72 hours): 1 to 10 µM
